This assay relates to 242566-281-R-J2-PDC complex spheroid viability. Briefly: Anticancer human tumor 242566-281-R-J2-PDC patient-derived pancreatic carcinoma cell line growth inhibition [RAS]. Conditions: for viability, T/C: stronger effect = lower value. A digest of the protocol: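 Agents were tested in combination matrices in half-log decrements from a top concentration at or near clinical Cmax (10 microM if undetermined). Targets were multi-cell spheroids of tumour lines plus HUVEC and MSC stromal cells.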

Structures are written as SMILES. “And” between values parts separate entries of the source, which are not always exact repeats. Identical values can stand only once.
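Note: spheroids exposed to compound for 7 days before readout.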
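Throughout, for viability, T/C: 100% = DMSO vehicle control wells.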

As a reminder, the IC50 is the midpoint of a concentration-inhibition curve. The viability, T/C is the result in the treated group divided by that in the control group, in per cent. Take `CC(C)n1nc(-c2ccc3oc(N)nc3c2)c2c(N)ncnc21` + CCn1c(-c2cc(N3CCN(C)CC3)cnc2C(C)OC)c2c3cc(ccc31)-c1csc(n1)CC(NC(=O)C1CC1C)C(=O)N1CCCC(N1)C(=O)OCC(C)(C)C2: the IC50 was 0.0299 µM (curve of first compound, second compound 0.000949 µM); 0.00715 µM (curve of first compound, second compound 0.003 µM); below 0.000316 µM (curve of first compound, second compound 0.00949 µM); below 0.000316 µM (curve of first compound, second compound 0.03 µM); below 0.000316 µM (curve of first compound, second compound 0.0949 µM); below 0.000316 µM (curve of first compound, second compound 0.3 µM). Also, the viability, T/C by setting is: (second compound 0.000949 µM, first compound 0.000316 µM) 81.6%; (second compound 0.000949 µM, first compound 0.001 µM) 91.5%; (second compound 0.000949 µM, first compound 0.00316 µM) 61.7%; (second compound 0.000949 µM, first compound 0.01 µM) 71.3%; (second compound 0.000949 µM, first compound 0.0316 µM) 48%; (second compound 0.000949 µM, first compound 0.1 µM) 27.4%. Besides, the viability, T/C is, setting by setting: (second compound 0.003 µM, first compound 0.000316 µM) 75.8%; (second compound 0.003 µM, first compound 0.001 µM) 62.1%; (second compound 0.003 µM, first compound 0.00316 µM) 54.2%; (second compound 0.003 µM, first compound 0.01 µM) 48.7%; (second compound 0.003 µM, first compound 0.0316 µM) 40.9%; (second compound 0.003 µM, first compound 0.1 µM) 20.6%. Moreover, the viability, T/C reads like this: (second compound 0.00949 µM, first compound 0.000316 µM) 48.5%; (second compound 0.00949 µM, first compound 0.001 µM) 38.4%; (second compound 0.00949 µM, first compound 0.00316 µM) 36.1%; (second compound 0.00949 µM, first compound 0.01 µM) 30.9%; (second compound 0.00949 µM, first compound 0.0316 µM) 28.2%; (second compound 0.00949 µM, first compound 0.1 µM) 15.8%. Further, the viability, T/C reads like this: (second compound 0.03 µM, first compound 0.000316 µM) 28.5%; (second compound 0.03 µM, first compound 0.001 µM) 29.8%; (second compound 0.03 µM, first compound 0.00316 µM) 26.3%; (second compound 0.03 µM, first compound 0.01 µM) 19.1%; (second compound 0.03 µM, first compound 0.0316 µM) 11.9%; (second compound 0.03 µM, first compound 0.1 µM) 10.4%. Besides, the viability, T/C was 21.5% (second compound 0.0949 µM, first compound 0.000316 µM); 18.4% (second compound 0.0949 µM, first compound 0.001 µM); 18.9% (second compound 0.0949 µM, first compound 0.00316 µM); 13.8% (second compound 0.0949 µM, first compound 0.01 µM); 7.41% (second compound 0.0949 µM, first compound 0.0316 µM); 6.96% (second compound 0.0949 µM, first compound 0.1 µM). Further, the viability, T/C (second compound 0.3 µM, first compound 0.000316 µM) is 18.5%; the viability, T/C (second compound 0.3 µM, first compound 0.001 µM) is 16.6%; the viability, T/C (second compound 0.3 µM, first compound 0.00316 µM) was 15.2%; the viability, T/C (second compound 0.3 µM, first compound 0.01 µM) is 11.5%; the viability, T/C (second compound 0.3 µM, first compound 0.0316 µM) is 7.41%; the viability, T/C (second compound 0.3 µM, first compound 0.1 µM) is 5.69%.

In the case of `NC1c2ccccc2OC12CCN(c1cnc3c(N4CCCc5ncccc54)n[nH]c3n1)CC2` (stereo not given), the viability, T/C reads like this: (compound 1 µM) 68.9% [middle of 4 runs]; (compound 10 µM) 51.8% [middle of 4 runs]. In addition, where the note is “curve of compound”, the IC50 was > 10 µM and 3.3 µM and 3.4 µM.

These data come from PubChem BioAssay AID2060910 (Molecular Pharmacology Branch, DTP, NCI, 2025).
